Assay results taken from patent US8940720B2, “Macrocycles as factor XIa inhibitors” (Bristol-Myers Squibb Company, priority 2010, dated 2015).
pKi: −log10 of the molar value. Where a name gives a salt, the structure may show the parent alone.

Molecular target: purified human Factor XIa (Homo sapiens (Human), UniProt P03951)
Experiment: Factor XIa enzyme inhibition assay (chromogenic substrate S-2366)
Format: biochemical
Conditions: substrate S-2366, pH 7.4
Experimental: The effectiveness of compounds of the present invention as inhibitors of the coagulation Factors XIa, VIIa, IXa, Xa, XIIa, plasma kallikrein or thrombin, can be determined using a relevant purified serine protease, respectively, and an appropriate synthetic substrate. The rate of hydrolysis of the chromogenic or fluorogenic substrate by the relevant serine protease was measured both in the absence and presence of compounds of the present invention. […] A decrease in the rate of absorbance or fluorescence change in the presence of inhibitor is indicative of enzyme inhibition. Such methods are known to one skilled in the art. The results of this assay are expressed as the inhibitory constant, Ki.
Values of Ki were determined by allowing the protease to react with the substrate in the presence of the inhibitor. Reactions were allowed to go for periods of 20-180 minutes (depending on the protease) and the velocities (rate of absorbance or fluorescence change versus time) were measured. The following relationships were used to calculate Ki values: (vo−vs)/vs=I/(Ki(1+S/Km)) for a competitive inhibitor with one binding site; or vs/vo=A+((B−A)/1+((IC50/(I)n))); and Ki=IC50/(1+S/Km) for a competitive inhibitor where: […]

Sequence of purified human Factor XIa (P03951 388-625): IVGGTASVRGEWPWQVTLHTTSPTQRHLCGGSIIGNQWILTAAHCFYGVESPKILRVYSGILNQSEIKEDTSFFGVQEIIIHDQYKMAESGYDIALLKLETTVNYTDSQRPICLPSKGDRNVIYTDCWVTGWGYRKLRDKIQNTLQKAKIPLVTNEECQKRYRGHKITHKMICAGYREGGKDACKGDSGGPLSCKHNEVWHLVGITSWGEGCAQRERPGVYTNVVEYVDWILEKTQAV
Sequence of purified human Factor XIa (P03951 19-387 partner): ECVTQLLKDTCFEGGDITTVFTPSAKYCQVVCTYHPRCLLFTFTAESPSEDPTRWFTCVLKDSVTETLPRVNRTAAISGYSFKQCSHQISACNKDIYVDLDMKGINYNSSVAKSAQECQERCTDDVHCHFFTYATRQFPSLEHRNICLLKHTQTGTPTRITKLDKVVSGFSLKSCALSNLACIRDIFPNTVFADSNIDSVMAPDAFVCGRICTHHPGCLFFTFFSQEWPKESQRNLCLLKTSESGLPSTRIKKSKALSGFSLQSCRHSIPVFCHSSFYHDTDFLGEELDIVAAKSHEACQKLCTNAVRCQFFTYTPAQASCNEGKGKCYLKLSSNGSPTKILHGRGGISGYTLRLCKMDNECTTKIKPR

Going from `O=C(/C=C/c1cc(Cl)ccc1-n1cnnn1)N[C@H]1CC=CCCC(=O)Nc2ccccc2C2=NN=C1O2` (mixture of isomers) [Example 122, (E)-3-(5-Chloro-2-tetrazol-1-yl-phenyl)-N-((S)-9-oxo-19-oxa-8,17,18-triaza-tricyclo[14.2.1.0^2,7]nonadeca-1(18),2,4,6,12,16-hexaen-15-yl)-acrylamide, and (Z)-3-(5-Chloro-2-tetrazol-1-yl-phenyl)-N-((S)-9-oxo-19-oxa-8,17,18-triaza-tricyclo[14.2.1.0^2,7]nonadeca-1(18),2,4,6,12,16-hexaen-15-yl)-acrylamide] to `O=C(/C=C/c1cc(Cl)ccc1-n1cnnn1)N[C@H]1C/C=C/COC(=O)Nc2ccccc2-c2nc1[nH]c2Cl` [Example 121, (E)-N-((E)-(S)-18-Chloro-9-oxo-10-oxa-8,17,19-triaza-tricyclo[14.2.1.0^2,7]nonadeca-1(18),2,4,6,12,16(19)-hexaen-15-yl)-3-(5-chloro-2-tetrazol-1-yl-phenyl)-acrylamide], the pKi rises from 7.60 to > 8.30.

Going from `COC(=O)Nc1ccc2c(c1)NC(=O)CCC(C)CC[C@H](NC(=O)/C=C/c1cc(Cl)ccc1-n1cnnn1)c1nc-2c[nH]1` (single isomer, unassigned) [Example 61] to `COC(=O)Nc1ccc2c(c1)NC(=O)CC(O)C(O)C[C@H](NC(=O)/C=C/c1cc(Cl)ccc1-n1cnnn1)c1nc-2c[nH]1` (single isomer, unassigned) [Example 137], the pKi falls from > 8.30 to 6.72. The first binds more tightly here.

Going from `COC(=O)Nc1ccc2c(c1)NS(=O)(=O)CC=CC[C@H](NC(=O)/C=C/c1cc(Cl)ccc1-n1cnnn1)c1nc-2c[nH]1` (stereo in doubt) [Example 19, {(E)-(S)-14-[(E)-3-(5-Chloro-2-tetrazol-1-yl-phenyl)-acryloylamino]-9,9-dioxo-9λ^6-thia-8,16,18-triaza-tricyclo[13.2.1.0^2,7]octadeca-1(17),2,4,6,11,15(18)-hexaen-5-yl}-carbamic acid methyl ester] to `COC(=O)Nc1ccc2c(c1)CCC/C=C/C[C@H](NC(=O)/C=C/c1cc(Cl)ccc1-n1cnnn1)c1nc-2c[nH]1` [Example 4, {(E)-(S)-14-[(E)-3-(5-Chloro-2-tetrazol-1-yl-phenyl)-acryloylamino]-16,18-diaza-tricyclo[13.2.1.0^2,7]octadeca-1(17),2,4,6,11,15(18)-hexaen-5-yl}-carbamic acid methyl ester], the pKi falls from 7.02 to 6.20 (0.82 log units).

Compared with `NC[C@H]1CC[C@H](C(=O)N[C@H]2C/C=C/CCCc3ccccc3-c3c[nH]c2n3)CC1` [Example 3], `COC(=O)Nc1ccc2c(c1)NC(=O)CC/C=C/C[C@H](NC(=O)[C@H]1CC[C@H](CN)CC1)c1cc-2ccn1` [Example 90, {(E)-(S)-15-[(4-Aminomethyl-cyclohexanecarbonyl)-amino]-9-oxo-8,17-diaza-tricyclo[14.3.1.0^2,7]icosa-1(20),2(7),3,5,12,16,18-heptaen-5-yl}-carbamic acid methyl ester] is higher in pKi: 5.21 for the first, > 8.30 for the second. The second binds more tightly here.

First: COC(=O)Nc1ccc2c(c1)CCCCCC[C@H](NC(=O)/C=C/c1cc(Cl)ccc1-n1cnnn1)c1nc-2c[nH]1 [Example 6, {(S)-14-[(E)-3-(5-Chloro-2-tetrazol-1-yl-phenyl)-acryloylamino]-16,18-diaza-tricyclo[13.2.1.0^2,7]octadeca-1(17),2,4,6,15(18)-pentaen-5-yl}-carbamic acid methyl ester]
Second: COC(=O)Nc1ccc2c(c1)NCCCCC[C@H](NC(=O)/C=C/c1cc(Cl)ccc1-n1cnnn1)c1nc-2c[nH]1 [Example 11, {(S)-14-[(E)-3-(5-Chloro-2-tetrazol-1-yl-phenyl)-acryloylamino]-8,16,18-triaza-tricyclo[13.2.1.0^2,7]octadeca-1(17),2,4,6,15(18)-pentaen-5-yl}-carbamic acid methyl ester]
The pKi of the first is 0.75 log units lower: 7.47 for the first, 8.22 for the second. The second binds more tightly here.

First: COC(=O)Nc1ccc2c(c1)OCCCCC[C@H](NC(=O)/C=C/c1cc(Cl)ccc1-n1cnnn1)c1nc-2c(Cl)[nH]1 [Example 9, {(S)-17-Chloro-14-[(E)-3-(5-chloro-2-tetrazol-1-yl-phenyl)-acryloylamino]-8-oxa-16,18-diaza-tricyclo[13.2.1.0^2,7]octadeca-1(17),2,4,6,15(18)-pentaen-5-yl}-carbamic acid methyl ester]
Second: COC(=O)Nc1ccc2c(c1)N[C@@H](C(F)(F)F)CCCC[C@H](NC(=O)/C=C/c1cc(Cl)ccc1-n1cnnn1)c1nc-2c(Cl)[nH]1 [Example I-60]
The pKi of the first is 0.39 log units higher: 6.60 for the first, 6.21 for the second. The first binds more tightly here.

Going from `COC(=O)Nc1ccc2c(c1)NCC(F)(F)C(=O)NC[C@H](NC(=O)/C=C/c1cc(Cl)ccc1-n1cnnn1)c1nc-2c[nH]1` [Example 21, {(S)-14-[(E)-3-(5-Chloro-2-tetrazol-1-yl-phenyl)-acryloylamino]-10,10-difluoro-11-oxo-8,12,16,18-tetraaza-tricyclo[13.2.1.0^2,7]octadeca-1(17),2,4,6,15(18)-pentaen-5-yl}-carbamic acid methyl ester] to `COC(=O)Nc1ccc2c(c1)NC(=O)CCCC[C@H](NC(=O)/C=C/c1cc(Cl)ccc1-n1ccnn1)c1nc-2c[nH]1` [Example I-5], the pKi rises from 5.35 to > 8.30. The second binds more tightly here.

Going from `COC(=O)Nc1ccc2c(c1)NC(=O)CC/C=C/CC(NC(=O)/C=C/c1cc(Cl)ccc1-n1cnnn1)c1cc(Cl)nnc1-2` (stereo not drawn) [Example 89, Methyl((E)-3-chloro-5-((E)-3-(5-chloro-2-(1H-tetrazol-1-yl)phenyl)acrylamido)-11-oxo-5,6,9,10,11,12-hexahydrobenzo[b]pyridazino[3,4-d][1]azacyclododecin-14-yl)carbamate] to `COC(=O)Nc1ccc2c(c1)NC(=O)CC/C=C/CC(NC(=O)/C=C/c1cc(Cl)ccc1-n1cnnn1)c1cccc-2c1` (stereo not drawn) [Example 93, {(E)-15-[(E)-3-(5-Chloro-2-tetrazol-1-yl-phenyl)-acryloylamino]-9-oxo-8-aza-tricyclo[14.3.1.0^2,7]icosa-1(20),2,4,6,12,16,18-heptaen-5-yl}-carbamic acid methyl ester], the pKi rises from 5.98 to > 8.30. The second binds more tightly here.

First: COC(=O)Nc1ccc2c(c1)NC(=O)CC/C=C/C[C@H](NC(=O)c1ccc(C#N)cc1)c1nc-2c(Cl)[nH]1 [Example 136, [(E)-(S)-18-Chloro-15-(4-cyano-benzoylamino)-9-oxo-8,17,19-triaza-tricyclo[14.2.1.0^2,7]nonadeca-1(18),2,4,6,12,16(19)-hexaen-5-yl]-carbamic acid methyl ester, 1 TFA salt]
Second: COC(=O)Nc1ccc2c(c1)NC(=O)CCCC[C@H](NC(=O)c1ccc(C(=N)N)cc1)c1nc-2c[nH]1 [Example I-4]
The pKi of the first is lower: 6.02 for the first, > 8.30 for the second. The second binds more tightly here.

Compared with `O=C(/C=C/c1cc(Cl)ccc1-n1cnnn1)N[C@H]1CCCCC(=O)Nc2cnccc2-c2ccnc1c2` [Example 138, (E)-3-(5-Chloro-2-tetrazol-1-yl-phenyl)-N-((S)-9-oxo-5,8,16-triaza-tricyclo[13.3.1.0^2,7]nonadeca-1(19),2,4,6,15,17-hexaen-14-yl)-acrylamide, 2 TFA salt], `COC(=O)Nc1ccc2c(c1)NC(=O)C/C=C/CC(NC(=O)/C=C/c1cc(Cl)ccc1-n1cnnn1)c1cc-2nc(C)n1` (stereo not drawn) [Example 167, {(E)-14-[(E)-3-(5-Chloro-2-tetrazol-1-yl-phenyl)-acryloylamino]-17-methyl-9-oxo-8,16,18-triaza-tricyclo[13.3.1.0^2,7]nonadeca-1(19),2,4,6,11,15,17-heptaen-5-yl}-carbamic acid methyl ester] is 0.90 log units lower in pKi: 7.70 for the first, 6.80 for the second.

Compared with `COC(=O)Nc1ccc2c(c1)NC(=O)CCCC[C@H](NC(=O)c1cc(-c3cccc(Cl)c3)no1)c1nc-2c[nH]1` [Example I-9], `COC(=O)Nc1ccc2c(c1)NC(=O)CCCC[C@H](NC(=O)c1cn(-c3cccc(Cl)c3)nn1)c1nc-2c[nH]1` [Example I-10] is 0.93 log units higher in pKi: 5.73 for the first, 6.66 for the second.

Going from `COC(=O)Nc1ccc2c(c1)NC(=O)CCCC[C@H](NC(=O)c1ccc3c(c1)CCCN3)c1nc-2c[nH]1` [Example I-13] to `COC(=O)Nc1ccc2c(c1)NC(=O)CCCC[C@H](NC(=O)c1ccc3ncccc3c1)c1nc-2c[nH]1` [Example I-14], the pKi falls from 6.51 to 5.53 (0.98 log units). The first binds more tightly here.

Compared with `COC(=O)Nc1ccc2c(c1)NC(=O)CCCC[C@H](NC(=O)c1cccc3ccccc13)c1nc-2c[nH]1` [Example I-17], `COC(=O)Nc1ccc2c(c1)NC(=O)CCCC[C@H](NC(=O)c1c(F)cc3c(ncn3C)c1F)c1nc-2c(F)[nH]1` [Example I-21] is higher in pKi: 6.45 for the first, > 8.30 for the second.

First: COC(=O)Nc1ccc2c(c1)NC(=O)C(C)CCC[C@H](NC(=O)c1c(F)cc3c(ncn3C)c1F)c1nc-2c(Cl)[nH]1 (stereo partly drawn) [Example I-57]
Second: COC(=O)Nc1ccc2c(c1)NC(=O)C(C)CCC[C@H](NC(=O)c1c(F)cc3c(ccn3C)c1F)c1nc-2c(Cl)[nH]1 (stereo partly drawn) [Example I-59]
The pKi of the first is lower: 8.18 for the first, > 8.30 for the second.

`CCOC(=O)[C@@H]1CCCC[C@H](NC(=O)/C=C/c2cc(Cl)ccc2-n2cnnn2)c2nc(c[nH]2)-c2ccc(NC(=O)OC)cc2N1` [Example I-67, (9S,14S)-14-[(E)-3-(5-Chloro-2-tetrazol-1-yl-phenyl)-acryloylamino]-5-methoxycarbonylamino-8,16,18-triaza-tricyclo[13.2.1.0^2,7]octadeca-1(17),2,4,6,15(18)-pentaene-9-carboxylic acid ethyl ester, 2 TFA salt] and `COC(=O)Nc1ccc2c(c1)N[C@@H](C(F)(F)F)CCCC[C@H](NC(=O)/C=C/c1cc(Cl)ccc1-n1cnnn1)c1nc-2c(C)[nH]1` [Example I-70] are within 0.2 log units of each other in pKi: 6.69 for the first, 6.57 for the second.
